Assay results reported in US12319676B2, “Substituted amide compounds useful as farnesoid X receptor modulators” (BRISTOL-MYERS SQUIBB COMPANY, priority 2019, dated 2025).

Target: T1, human FXR (Homo sapiens, UniProt Q96RI1)
T1 construct: expressed in transfected cells; host or cells: HEK293 cells stably carrying a 5xGal4 response element-luciferase reporter, transiently transfected with pcDNA3.1-Gal4-FXR
T1 sequence (Q96RI1 262-486 limits assumed): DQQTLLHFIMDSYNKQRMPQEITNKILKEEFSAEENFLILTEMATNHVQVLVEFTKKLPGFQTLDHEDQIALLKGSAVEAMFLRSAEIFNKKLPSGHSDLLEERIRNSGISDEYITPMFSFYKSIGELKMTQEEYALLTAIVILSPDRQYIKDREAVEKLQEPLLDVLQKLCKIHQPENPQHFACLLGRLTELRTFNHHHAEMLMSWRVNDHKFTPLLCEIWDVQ
Experiment: transient human FXR/Gal4-luciferase reporter assay
Assay type: cell-based
Conditions: Gal4-hFXR fusion construct, luciferase reporter in HEK293 cells; overnight incubation; response as percentage of 8 μM GW-4064 control
Outline: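 HEK293 cells stably carrying a 5×Gal4-response-element firefly luciferase reporter were transiently transfected with a Gal4 DBD-human FXR LBD fusion, then treated overnight with compounds at 37 °C. Steady-Glo luminescence, minus DMSO background, was expressed as percent of the response to 8 μM GW-4064.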

| Structure (SMILES) | EC50 |
| --- | --- |
| CCOc1cccc(N(CC23CCC(c4nc(C5CC5)no4)(CC2)CC3)C(=O)C23CC(F)(C2)C3)c1 [Example 52, N-((4-(3-cyclopropyl-1,2,4-oxadiazol-5-yl)bicyclo[2.2.2]octan-1-yl)methyl)-N-(3-ethoxyphenyl)-3-fluorobicyclo[1.1.1]pentane-1-carboxamide] | 102 nM |
| CCOc1cccc(N(CC23CCC(c4nc(C5CC5)no4)(CC2)CC3)C(=O)C2CC(F)(F)C2)c1 [Example 53, N-((4-(3-cyclopropyl-1,2,4-oxadiazol-5-yl)bicyclo[2.2.2]octan-1-yl)methyl)-N-(3-ethoxyphenyl)-3,3-difluorocyclobutane-1-carboxamide] | 441 nM |
| CCOc1cccc(N(CC23CCC(c4nc(C5CC5)no4)(CC2)CC3)C(=O)[C@H]2C[C@](O)(C(F)(F)F)C2)c1 [Example 54, N-((4-(3-cyclopropyl-1,2,4-oxadiazol-5-yl)bicyclo[2.2.2]octan-1-yl)methyl)-N-(3-ethoxyphenyl)-3-hydroxy-3-(trifluoromethyl)cyclobutane-1-carboxamide] | 938 nM |
| CCOc1cccc(N(CC23CCC(c4nc(C5CC5)no4)(CC2)CC3)C(=O)C2CCOCC2)c1 [Example 55, N-((4-(3-cyclopropyl-1,2,4-oxadiazol-5-yl)bicyclo[2.2.2]octan-1-yl)methyl)-N-(3-ethoxyphenyl)tetrahydro-2H-pyran-4-carboxamide] | 320 nM |
| CCOc1cccc(N(CC23CCC(c4nc(C5CC5)no4)(CC2)CC3)C(=O)C2CCS(=O)(=O)CC2)c1 [Example 56, N-((4-(3-cyclopropyl-1,2,4-oxadiazol-5-yl)bicyclo[2.2.2]octan-1-yl)methyl)-N-(3-ethoxyphenyl)tetrahydro-2H-thiopyran-4-carboxamide 1,1-dioxide] | 4000 nM |
| COc1cccc(N(CC23CCC(c4nc(C5CC5)no4)(CC2)CC3)C(=O)[C@H]2C[C@](O)(C(F)(F)F)C2)c1 [Example 57, (1S,3S)—N-((4-(3-cyclopropyl-1,2,4-oxadiazol-5-yl)bicyclo[2.2.2]octan-1-yl)methyl)-3-hydroxy-N-(3-methoxyphenyl)-3-(trifluoromethyl)cyclobutane-1-carboxamide] | 304 nM |
| COc1cccc(N(CC23CCC(c4nc(C5CC5)no4)(CC2)CC3)C(=O)C23CC(F)(C2)C3)c1 [Example 58, N-((4-(3-cyclopropyl-1,2,4-oxadiazol-5-yl)bicyclo[2.2.2]octan-1-yl)methyl)-3-fluoro-N-(3-methoxyphenyl)bicyclo[1.1.1]pentane-1-carboxamide] | 345 nM |
| COc1cccc(N(CC23CCC(c4nc(C5CC5)no4)(CC2)CC3)C(=O)C2CC(F)(F)C2)c1 [Example 59, N-((4-(3-cyclopropyl-1,2,4-oxadiazol-5-yl)bicyclo[2.2.2]octan-1-yl)methyl)-3,3-difluoro-N-(3-methoxyphenyl)cyclobutane-1-carboxamide] | 673 nM |
| COc1cccc(N(CC23CCC(c4nc(C5CC5)no4)(CC2)CC3)C(=O)C2CCOCC2)c1 [Example 60, N-((4-(3-cyclopropyl-1,2,4-oxadiazol-5-yl)bicyclo[2.2.2]octan-1-yl)methyl)-N-(3-methoxyphenyl)tetrahydro-2H-pyran-4-carboxamide] | 902 nM |
| COc1cccc(N(CC23CCC(c4nc(C5CC5)no4)(CC2)CC3)C(=O)C2CCS(=O)(=O)CC2)c1 [Example 61, N-((4-(3-cyclopropyl-1,2,4-oxadiazol-5-yl)bicyclo[2.2.2]octan-1-yl)methyl)-N-(3-methoxyphenyl)tetrahydro-2H-thiopyran-4-carboxamide 1,1-dioxide] | 4000 nM |
| N#Cc1cc(F)cc(N(CC23CCC(c4nc(C5CC5)no4)(CC2)CC3)C(=O)C23CC(F)(C2)C3)c1 [Example 62, N-(3-cyano-5-fluorophenyl)-N-((4-(3-cyclopropyl-1,2,4-oxadiazol-5-yl)bicyclo[2.2.2]octan-1-yl)methyl)-3-fluorobicyclo[1.1.1]pentane-1-carboxamide] | 185 nM |
| N#Cc1cc(F)cc(N(CC23CCC(c4nc(C5CC5)no4)(CC2)CC3)C(=O)[C@H]2C[C@](O)(C(F)(F)F)C2)c1 [Example 63, (1S,3S)-N-(3-cyano-5-fluorophenyl)-N-((4-(3-cyclopropyl 1,2,4-oxadiazol-5-yl)bicyclo[2.2.2]octan-1-yl)methyl)-3-hydroxy-3-(trifluoromethyl)cyclobutane-1-carboxamide] | 1050 nM |
| N#Cc1cc(F)cc(N(CC23CCC(c4nc(C5CC5)no4)(CC2)CC3)C(=O)C2CC(F)(F)C2)c1 [Example 64, N-(3-cyano-5-fluorophenyl)-N-((4-(3-cyclopropyl-1,2,4-oxadiazol-5-yl)bicyclo[2.2.2]octan-1-yl)methyl)-3,3-difluorocyclobutane-1-carboxamide] | 528 nM |
| CS(=O)(=O)Nc1cccc(N(CC23CCC(c4nc(C5CC5)no4)(CC2)CC3)C(=O)C2CC(F)(F)C2)c1 [Example 65, N-((4-(3-cyclopropyl-1,2,4-oxadiazol-5-yl)bicyclo[2.2.2]octan-1-yl)methyl)-3,3-difluoro-N-(3-(methylsulfonamido)phenyl)cyclobutane-1-carboxamide] | 1280 nM |
| CS(=O)(=O)Nc1cccc(N(CC23CCC(c4nc(C5CC5)no4)(CC2)CC3)C(=O)C23CC(F)(C2)C3)c1 [Example 66, N-((4-(3-cyclopropyl-1,2,4-oxadiazol-5-yl)bicyclo[2.2.2]octan-1-yl)methyl)-3-fluoro-N-(3-(methylsulfonamido)phenyl)bicyclo[1.1.1]pentane-1-carboxamide] | 4000 nM |
| CS(=O)(=O)Nc1cccc(N(CC23CCC(c4nc(C5CC5)no4)(CC2)CC3)C(=O)[C@H]2C[C@](O)(C(F)(F)F)C2)c1 [Example 67, (1S,3S)-N-((4-(3-cyclopropyl-1,2,4-oxadiazol-5-yl)bicyclo[2.2.2]octan-1-yl)methyl)-3-hydroxy-N-(3-(methylsulfonamido)phenyl)-3-(trifluoromethyl)cyclobutane-1-carboxamide] | 4000 nM |
| CS(=O)(=O)c1cccc(N(CC23CCC(c4nc(C5CC5)no4)(CC2)CC3)C(=O)C23CC(F)(C2)C3)c1 [Example 68, N-((4-(3-cyclopropyl-1,2,4-oxadiazol-5-yl)bicyclo[2.2.2]octan-1-yl)methyl)-3-fluoro-N-(3-(methylsulfonyl)phenyl)bicyclo[1.1.1]pentane-1-carboxamide] | 1490 nM |
| CS(=O)(=O)c1cccc(N(CC23CCC(c4nc(C5CC5)no4)(CC2)CC3)C(=O)C2CCC(F)(F)CC2)c1 [Example 69, N-((4-(3-cyclopropyl-1,2,4-oxadiazol-5-yl)bicyclo[2.2.2]octan-1-yl)methyl)-4,4-difluoro-N-(3-(methylsulfonyl)phenyl)cyclohexane-1-carboxamide] | 4000 nM |
| CC(N(C(=O)C12CC(F)(C1)C2)c1cccc(C#N)c1)C12CCC(c3nc(C4CC4)no3)(CC1)CC2 (centres unmarked) [Example 70, N-(3-cyanophenyl)-N-(1-(4-(3-cyclopropyl-1,2,4-oxadiazol-5-yl)bicyclo[2.2.2]octan-1-yl)ethyl)-3-fluorobicyclo[1.1.1]pentane-1-carboxamide] | 2000 nM |
| Cn1nc(C2CC2)cc1C12CCC(CN(C(=O)C34CC(F)(C3)C4)c3cccc(C#N)c3)(CC1)CC2 [Example 72, N-(3-cyanophenyl)-N-((4-(3-cyclopropyl-1-methyl-1H-pyrazol-5-yl)bicyclo[2.2.2]octan-1-yl)methyl)-3-fluorobicyclo[1.1.1]pentane-1-carboxamide] | 993 nM |
